Test results published in ChEMBL document CHEMBL1201862, “PubChem BioAssay data set” (2004).
Calls of active or inactive are those of the source.

Experiments:
[1] = target: T1, E3 ubiquitin-protein ligase XIAP (Homo sapiens, UniProt P98170); assay: Counter Screen using XIAP-Bir3 for Chemical Antagonists of Bir1/2 domains of IAP-family anti-apoptotic proteins. [Related pubchem assays (depositor defined):AID1018, AID1449, AID1514, AID1638, AID1749, AID1750, AID488957, AID488963]
[2] = target: T1, E3 ubiquitin-protein ligase XIAP; assay: XIAP antagonists, biochemical, IAP family, fluorescence polarization (AID 1018); type: functional
[3] = Luminescence Cell-Based Dose-Confimation HTS to Identify Inhibitors of 5'UTR Stem-Loop Driven Alpha-Synuclein mRNA Translation in H4 Neuroglioblastoma Cells. [Related pubchem assays: 1827 (Project Summary), 1813 (Primary HTS)]; type: functional
[4] = target: T2, Induced myeloid leukemia cell differentiation protein Mcl-1 (Homo sapiens, UniProt Q07820); assay: MCL1-BIM BH3 interaction inhibitors, dose response, biochemical, fluorescence polarization, BIM-BH3 peptide, 1536-well (AID 2217)
[5] = target: Dual specificity protein phosphatase 3 (Homo sapiens, UniProt P51452); assay: SAR VHR1 Fluorescent Assay for In Vitro dose response studies. [Related pubchem assays (depositor defined):AID1654, AID1661, AID1878, AID1992, AID2004, AID2070, AID2085]; type: functional
SUMO-activating enzyme [6] = target: T3, SUMO-activating enzyme (Homo sapiens, UniProt Q9UBT2); assay: inhibitors of in vitro SUMOylation cascade, primary screen, biochemical, HTRF, uHTS (AID 2006); type: protein-complex assay
SUMO-activating enzyme [7] = target: T3, SUMO-activating enzyme; assay: SUMOylation inhibitor hit validation, confirmation, SUMOylation inhibitor project, biochemical, AlphaScreen (AID 2018); type: functional
Bcl-2-like protein 1 = Bcl-2-like protein 1 (Homo sapiens, UniProt Q07817); assay: BCL-XL inhibitors, dose response, selectivity assay for MCL1 inhibitor project, biochemical, fluorescence polarization, 1536-well (AID 2218)
[8] = target: T4, Dual specificity protein phosphatase 6 (Rattus norvegicus, UniProt Q64346); type: functional
T4 sequence (Q64346 whole entry): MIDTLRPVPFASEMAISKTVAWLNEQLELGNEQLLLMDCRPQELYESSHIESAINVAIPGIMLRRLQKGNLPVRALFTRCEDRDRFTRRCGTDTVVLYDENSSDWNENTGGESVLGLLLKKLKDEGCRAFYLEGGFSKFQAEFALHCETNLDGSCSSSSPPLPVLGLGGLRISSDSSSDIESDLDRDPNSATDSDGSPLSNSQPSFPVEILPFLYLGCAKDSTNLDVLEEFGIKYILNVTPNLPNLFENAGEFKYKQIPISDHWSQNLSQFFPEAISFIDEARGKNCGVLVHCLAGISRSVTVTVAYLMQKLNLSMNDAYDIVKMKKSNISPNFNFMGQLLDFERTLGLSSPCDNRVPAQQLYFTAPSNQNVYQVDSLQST

[9] = target: T5, Tyrosine-protein phosphatase non-receptor type 7 (Homo sapiens, UniProt P35236); assay: redox-dependent HePTP inhibition, mechanism study, biochemical, fluorescence (AID 2068); type: functional
T5 sequence (P35236 whole entry): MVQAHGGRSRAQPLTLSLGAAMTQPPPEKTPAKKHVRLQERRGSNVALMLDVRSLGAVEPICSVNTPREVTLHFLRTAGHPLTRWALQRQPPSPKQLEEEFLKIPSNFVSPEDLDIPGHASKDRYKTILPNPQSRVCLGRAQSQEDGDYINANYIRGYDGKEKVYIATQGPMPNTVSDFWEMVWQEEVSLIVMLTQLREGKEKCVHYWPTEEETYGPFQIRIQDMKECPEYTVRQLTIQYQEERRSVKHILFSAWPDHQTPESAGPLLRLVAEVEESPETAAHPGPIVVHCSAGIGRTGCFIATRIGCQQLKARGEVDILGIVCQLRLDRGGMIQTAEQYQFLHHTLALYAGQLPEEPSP

Estrogen receptor beta = Estrogen receptor beta (Homo sapiens, UniProt Q92731); assay: ERβ–SRC-3 coactivator interaction inhibitors, confirmation, orthogonal assay, biochemical, ELISA, streptavidin-HRP readout (AID 1060)
Bcl-2-like protein 10 = target: T6, Bcl-2-like protein 10 (Homo sapiens, UniProt Q9HD36); assay: displacers of TR3 peptide from Bcl-B, primary screen, selectivity assay for Bfl-1 inhibitor project, biochemical, fluorescence polarization, FITC-TR3 peptide (AID 748);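 further: fluorescence polarization from a fluorescein-labelled TR3 peptide binding purified Bcl-B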
T6 sequence (Q9HD36 whole entry): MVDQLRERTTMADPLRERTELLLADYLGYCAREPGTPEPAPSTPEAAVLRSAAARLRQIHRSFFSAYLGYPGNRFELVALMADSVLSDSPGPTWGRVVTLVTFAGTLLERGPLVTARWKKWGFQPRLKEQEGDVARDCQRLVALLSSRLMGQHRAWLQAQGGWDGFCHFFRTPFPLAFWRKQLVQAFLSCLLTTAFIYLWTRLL

[10] = target: T5, Tyrosine-protein phosphatase non-receptor type 7; type: functional
[11] = target: Glyceraldehyde-3-phosphate dehydrogenase (Homo sapiens, UniProt P04406)
Genome polyprotein = Genome polyprotein (dengue virus type 2, UniProt P29990); assay: Dengue-2 NS5 methyltransferase inhibitors, primary screen, biochemical, confirmation dose response (AID 588689); type: functional
[12] = target: T4, Dual specificity protein phosphatase 6
[13] = target: T2, Induced myeloid leukemia cell differentiation protein Mcl-1; type: functional
[14] = target: Potassium voltage-gated channel subfamily KQT member 2 (Rattus norvegicus, UniProt O88943, W236L); assay: KCNQ2 channel potentiators, dose response, mechanism study for KCNQ2 potentiator project, cell-based, automated electrophysiology (AID 2603); type: functional
[15] = target: T7, Replicative DNA helicase DnaB (Mycobacterium tuberculosis, UniProt P9WMR3); assay: DnaB intein splicing inhibitors, dose response, biochemical, cell-free fluorescence (AID 449749); type: functional
T7 sequence (P9WMR3 whole entry): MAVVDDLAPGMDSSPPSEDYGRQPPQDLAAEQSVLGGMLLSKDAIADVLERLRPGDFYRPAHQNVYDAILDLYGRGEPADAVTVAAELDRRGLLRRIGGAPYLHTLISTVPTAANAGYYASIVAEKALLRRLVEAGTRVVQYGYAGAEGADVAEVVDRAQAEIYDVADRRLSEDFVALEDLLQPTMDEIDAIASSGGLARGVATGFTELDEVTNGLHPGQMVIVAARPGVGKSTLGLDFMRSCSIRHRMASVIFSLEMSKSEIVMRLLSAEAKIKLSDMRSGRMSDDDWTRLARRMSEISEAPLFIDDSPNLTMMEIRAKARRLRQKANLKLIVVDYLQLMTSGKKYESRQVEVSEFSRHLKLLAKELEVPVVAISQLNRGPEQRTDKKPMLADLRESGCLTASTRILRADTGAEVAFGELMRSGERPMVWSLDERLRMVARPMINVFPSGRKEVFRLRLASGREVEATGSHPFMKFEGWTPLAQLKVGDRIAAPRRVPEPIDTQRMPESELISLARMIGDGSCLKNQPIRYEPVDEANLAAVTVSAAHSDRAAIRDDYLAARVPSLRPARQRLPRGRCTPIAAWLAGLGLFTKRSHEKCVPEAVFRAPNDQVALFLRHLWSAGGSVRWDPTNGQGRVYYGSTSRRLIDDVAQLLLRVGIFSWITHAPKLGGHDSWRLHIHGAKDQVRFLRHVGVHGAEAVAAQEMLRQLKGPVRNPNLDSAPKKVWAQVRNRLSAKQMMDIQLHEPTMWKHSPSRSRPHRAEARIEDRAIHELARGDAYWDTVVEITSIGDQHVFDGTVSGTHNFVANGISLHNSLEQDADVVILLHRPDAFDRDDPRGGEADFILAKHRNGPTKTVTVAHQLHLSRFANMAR

Protein RecA = target: T8, Protein RecA (Mycobacterium tuberculosis, UniProt P9WHJ3); assay: Fluorescence Cell-Free Homogeneous Dose Retest to Identify Inhibitors of RecA-Intein Splicing Activity. [Related pubchem assays (depositor defined):AID2097, AID2223, AID489010, AID492950]; type: functional
T8 sequence (P9WHJ3 whole entry): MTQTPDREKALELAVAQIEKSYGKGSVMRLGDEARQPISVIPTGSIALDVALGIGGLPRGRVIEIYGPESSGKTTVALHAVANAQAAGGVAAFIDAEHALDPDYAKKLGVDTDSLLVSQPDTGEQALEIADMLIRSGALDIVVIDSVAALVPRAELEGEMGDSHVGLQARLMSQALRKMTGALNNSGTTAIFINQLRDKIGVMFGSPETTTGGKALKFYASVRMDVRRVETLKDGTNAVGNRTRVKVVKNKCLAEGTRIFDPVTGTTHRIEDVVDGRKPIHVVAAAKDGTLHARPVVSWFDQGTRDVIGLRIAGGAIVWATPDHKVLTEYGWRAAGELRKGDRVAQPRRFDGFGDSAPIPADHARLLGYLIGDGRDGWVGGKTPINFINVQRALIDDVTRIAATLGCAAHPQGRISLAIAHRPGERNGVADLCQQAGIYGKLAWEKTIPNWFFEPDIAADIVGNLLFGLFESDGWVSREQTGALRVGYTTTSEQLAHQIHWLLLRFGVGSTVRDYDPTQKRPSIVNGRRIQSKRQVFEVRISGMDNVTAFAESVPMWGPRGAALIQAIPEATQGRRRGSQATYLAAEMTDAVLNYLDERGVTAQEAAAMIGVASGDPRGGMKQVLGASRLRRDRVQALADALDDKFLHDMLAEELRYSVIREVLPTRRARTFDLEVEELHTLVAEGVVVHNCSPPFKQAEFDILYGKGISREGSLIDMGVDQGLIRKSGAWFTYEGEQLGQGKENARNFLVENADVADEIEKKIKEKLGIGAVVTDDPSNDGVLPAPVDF

Estrogen receptor = target: T9, Estrogen receptor (Homo sapiens, UniProt P03372); assay: potentiators of ERα–SRC-1 coactivator binding, dose response, biochemical, TR-FRET, ERα LBD (AID 737)
T9 sequence (P03372 whole entry): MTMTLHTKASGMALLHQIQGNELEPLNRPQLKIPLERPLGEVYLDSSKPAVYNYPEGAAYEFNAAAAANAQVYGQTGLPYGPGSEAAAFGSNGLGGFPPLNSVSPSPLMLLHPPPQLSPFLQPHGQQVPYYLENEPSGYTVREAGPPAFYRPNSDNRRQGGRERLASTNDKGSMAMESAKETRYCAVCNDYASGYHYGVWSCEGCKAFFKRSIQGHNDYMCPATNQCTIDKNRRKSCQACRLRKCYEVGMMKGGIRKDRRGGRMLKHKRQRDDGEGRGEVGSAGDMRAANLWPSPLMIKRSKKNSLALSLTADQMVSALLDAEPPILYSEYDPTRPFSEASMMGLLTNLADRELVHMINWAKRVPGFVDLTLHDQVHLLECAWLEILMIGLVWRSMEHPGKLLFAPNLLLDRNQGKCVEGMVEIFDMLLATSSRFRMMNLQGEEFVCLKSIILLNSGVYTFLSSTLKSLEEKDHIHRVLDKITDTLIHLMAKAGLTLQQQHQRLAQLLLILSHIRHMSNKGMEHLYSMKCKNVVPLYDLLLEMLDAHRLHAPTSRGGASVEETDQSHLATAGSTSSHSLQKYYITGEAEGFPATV

[16] = target: T10, Neuropeptide Y receptor type 1 (Homo sapiens, UniProt P25929); assay: NPY-Y1 receptor antagonist potency, dose response, cell-based (AID 1277); type: functional
T10 sequence (P25929 whole entry): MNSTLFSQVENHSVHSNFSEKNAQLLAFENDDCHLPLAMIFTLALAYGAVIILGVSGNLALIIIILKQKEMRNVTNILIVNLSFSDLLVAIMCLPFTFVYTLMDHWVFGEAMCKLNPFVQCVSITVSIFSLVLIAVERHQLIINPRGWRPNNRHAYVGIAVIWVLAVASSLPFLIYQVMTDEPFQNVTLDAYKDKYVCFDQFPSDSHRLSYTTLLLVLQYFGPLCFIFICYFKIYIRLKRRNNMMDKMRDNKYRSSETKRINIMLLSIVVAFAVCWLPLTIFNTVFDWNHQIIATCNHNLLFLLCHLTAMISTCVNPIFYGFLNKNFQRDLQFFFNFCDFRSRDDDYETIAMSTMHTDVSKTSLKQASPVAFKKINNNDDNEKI

[17] = target: T11, Neuropeptide Y receptor type 2 (Homo sapiens, UniProt P49146); assay: NPY-Y2 antagonist potency, selectivity check, dose response, counter-screen for NPY-Y1 antagonist project, cell-based (AID 1278); type: functional
T11 sequence (P49146 whole entry): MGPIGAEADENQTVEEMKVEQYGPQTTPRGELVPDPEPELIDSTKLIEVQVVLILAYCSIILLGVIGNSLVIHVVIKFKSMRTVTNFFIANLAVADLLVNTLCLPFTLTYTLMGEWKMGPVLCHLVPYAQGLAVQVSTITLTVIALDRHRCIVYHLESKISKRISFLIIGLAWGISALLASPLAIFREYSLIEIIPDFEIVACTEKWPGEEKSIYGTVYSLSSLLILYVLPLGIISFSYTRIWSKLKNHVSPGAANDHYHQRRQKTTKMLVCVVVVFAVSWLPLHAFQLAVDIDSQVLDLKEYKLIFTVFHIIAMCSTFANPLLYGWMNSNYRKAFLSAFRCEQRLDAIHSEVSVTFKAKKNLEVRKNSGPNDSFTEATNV

T3 sequence (Q9UBE0 whole entry): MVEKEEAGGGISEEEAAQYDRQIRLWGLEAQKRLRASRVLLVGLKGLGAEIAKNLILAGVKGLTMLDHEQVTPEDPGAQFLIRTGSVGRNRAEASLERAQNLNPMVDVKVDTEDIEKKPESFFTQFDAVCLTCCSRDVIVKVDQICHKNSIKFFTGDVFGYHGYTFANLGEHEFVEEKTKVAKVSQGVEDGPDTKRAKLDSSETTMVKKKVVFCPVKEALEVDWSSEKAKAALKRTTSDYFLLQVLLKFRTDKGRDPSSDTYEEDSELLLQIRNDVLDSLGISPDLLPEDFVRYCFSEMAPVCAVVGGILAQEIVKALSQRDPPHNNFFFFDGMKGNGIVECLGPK
T3 sequence (Q9UBT2 whole entry): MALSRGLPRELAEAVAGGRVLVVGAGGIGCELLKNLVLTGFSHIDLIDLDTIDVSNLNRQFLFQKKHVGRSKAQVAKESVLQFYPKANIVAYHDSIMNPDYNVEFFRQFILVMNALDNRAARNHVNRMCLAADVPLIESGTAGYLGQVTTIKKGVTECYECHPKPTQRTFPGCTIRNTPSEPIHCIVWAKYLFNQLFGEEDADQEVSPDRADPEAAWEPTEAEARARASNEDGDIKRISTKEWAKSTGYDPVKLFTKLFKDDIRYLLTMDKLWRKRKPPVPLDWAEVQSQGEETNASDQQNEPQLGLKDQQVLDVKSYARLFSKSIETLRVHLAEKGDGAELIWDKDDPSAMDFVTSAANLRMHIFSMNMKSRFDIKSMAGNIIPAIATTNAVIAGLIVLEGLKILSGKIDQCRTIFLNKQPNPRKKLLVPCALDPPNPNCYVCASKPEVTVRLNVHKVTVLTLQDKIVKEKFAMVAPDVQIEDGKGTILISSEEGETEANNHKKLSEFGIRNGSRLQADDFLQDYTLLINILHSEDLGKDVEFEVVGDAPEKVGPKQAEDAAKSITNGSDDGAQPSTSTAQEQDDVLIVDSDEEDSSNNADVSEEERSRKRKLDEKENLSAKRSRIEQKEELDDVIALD
T1 sequence (P98170 whole entry): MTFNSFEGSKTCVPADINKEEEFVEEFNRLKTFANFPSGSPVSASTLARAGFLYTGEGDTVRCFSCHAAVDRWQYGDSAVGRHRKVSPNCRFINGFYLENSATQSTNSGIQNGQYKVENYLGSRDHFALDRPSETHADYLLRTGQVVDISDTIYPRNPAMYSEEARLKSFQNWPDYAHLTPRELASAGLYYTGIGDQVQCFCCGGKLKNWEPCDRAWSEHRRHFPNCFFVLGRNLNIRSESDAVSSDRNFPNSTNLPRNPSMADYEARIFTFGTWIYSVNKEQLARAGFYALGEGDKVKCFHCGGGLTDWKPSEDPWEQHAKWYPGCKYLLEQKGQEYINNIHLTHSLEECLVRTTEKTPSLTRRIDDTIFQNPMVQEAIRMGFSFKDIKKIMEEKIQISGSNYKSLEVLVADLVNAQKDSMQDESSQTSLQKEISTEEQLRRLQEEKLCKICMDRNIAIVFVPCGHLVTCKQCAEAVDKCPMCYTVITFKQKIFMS
T2 sequence (Q07820 whole entry): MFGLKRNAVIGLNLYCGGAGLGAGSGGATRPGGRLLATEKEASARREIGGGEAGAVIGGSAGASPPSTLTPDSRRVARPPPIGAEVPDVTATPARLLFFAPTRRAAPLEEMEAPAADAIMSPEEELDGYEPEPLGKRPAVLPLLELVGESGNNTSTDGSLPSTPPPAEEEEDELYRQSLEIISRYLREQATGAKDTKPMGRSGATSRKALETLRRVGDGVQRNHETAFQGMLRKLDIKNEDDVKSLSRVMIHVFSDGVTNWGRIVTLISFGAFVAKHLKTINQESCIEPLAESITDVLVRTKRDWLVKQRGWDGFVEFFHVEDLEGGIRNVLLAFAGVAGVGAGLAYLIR
Sequence of Bcl-2-like protein 1 (Q07817 whole entry): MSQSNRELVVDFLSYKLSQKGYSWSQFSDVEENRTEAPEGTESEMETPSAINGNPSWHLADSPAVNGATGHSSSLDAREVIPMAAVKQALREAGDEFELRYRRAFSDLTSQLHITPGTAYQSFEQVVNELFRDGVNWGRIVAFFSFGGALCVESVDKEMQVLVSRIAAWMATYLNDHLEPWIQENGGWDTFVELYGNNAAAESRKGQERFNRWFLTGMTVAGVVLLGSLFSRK
Sequence of Dual specificity protein phosphatase 3 (P51452 whole entry): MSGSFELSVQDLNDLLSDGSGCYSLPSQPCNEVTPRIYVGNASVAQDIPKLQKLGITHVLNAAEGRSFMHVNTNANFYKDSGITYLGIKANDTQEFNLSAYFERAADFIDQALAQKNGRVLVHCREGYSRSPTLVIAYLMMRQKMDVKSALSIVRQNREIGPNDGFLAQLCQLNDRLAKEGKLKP
Sequence of Estrogen receptor beta (Q92731 whole entry): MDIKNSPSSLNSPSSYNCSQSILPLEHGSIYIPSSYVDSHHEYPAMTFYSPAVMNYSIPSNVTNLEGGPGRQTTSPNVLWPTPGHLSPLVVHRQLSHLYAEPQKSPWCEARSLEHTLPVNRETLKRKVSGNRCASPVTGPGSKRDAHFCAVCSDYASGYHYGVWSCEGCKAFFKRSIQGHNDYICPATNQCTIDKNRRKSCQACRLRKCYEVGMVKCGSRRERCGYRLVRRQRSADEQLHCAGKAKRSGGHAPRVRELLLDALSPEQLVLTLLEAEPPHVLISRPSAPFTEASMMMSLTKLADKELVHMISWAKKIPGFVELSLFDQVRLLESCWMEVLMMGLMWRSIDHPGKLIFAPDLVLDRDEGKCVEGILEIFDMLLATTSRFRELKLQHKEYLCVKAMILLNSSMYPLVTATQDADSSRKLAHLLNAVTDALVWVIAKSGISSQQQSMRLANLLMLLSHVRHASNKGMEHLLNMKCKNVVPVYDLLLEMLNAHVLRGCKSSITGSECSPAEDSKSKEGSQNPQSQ
Sequence of Glyceraldehyde-3-phosphate dehydrogenase (P04406 whole entry): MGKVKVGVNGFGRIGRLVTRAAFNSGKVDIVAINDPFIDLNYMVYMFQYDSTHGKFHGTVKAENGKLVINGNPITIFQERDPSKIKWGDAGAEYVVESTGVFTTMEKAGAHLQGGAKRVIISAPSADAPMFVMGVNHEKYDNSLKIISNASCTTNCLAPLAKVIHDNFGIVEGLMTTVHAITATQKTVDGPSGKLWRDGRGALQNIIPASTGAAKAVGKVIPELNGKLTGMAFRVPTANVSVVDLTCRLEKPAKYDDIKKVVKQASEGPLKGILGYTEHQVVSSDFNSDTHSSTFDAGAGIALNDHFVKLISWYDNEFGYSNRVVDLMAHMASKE
Sequence of Potassium voltage-gated channel subfamily KQT member 2 (O88943 whole entry W236L): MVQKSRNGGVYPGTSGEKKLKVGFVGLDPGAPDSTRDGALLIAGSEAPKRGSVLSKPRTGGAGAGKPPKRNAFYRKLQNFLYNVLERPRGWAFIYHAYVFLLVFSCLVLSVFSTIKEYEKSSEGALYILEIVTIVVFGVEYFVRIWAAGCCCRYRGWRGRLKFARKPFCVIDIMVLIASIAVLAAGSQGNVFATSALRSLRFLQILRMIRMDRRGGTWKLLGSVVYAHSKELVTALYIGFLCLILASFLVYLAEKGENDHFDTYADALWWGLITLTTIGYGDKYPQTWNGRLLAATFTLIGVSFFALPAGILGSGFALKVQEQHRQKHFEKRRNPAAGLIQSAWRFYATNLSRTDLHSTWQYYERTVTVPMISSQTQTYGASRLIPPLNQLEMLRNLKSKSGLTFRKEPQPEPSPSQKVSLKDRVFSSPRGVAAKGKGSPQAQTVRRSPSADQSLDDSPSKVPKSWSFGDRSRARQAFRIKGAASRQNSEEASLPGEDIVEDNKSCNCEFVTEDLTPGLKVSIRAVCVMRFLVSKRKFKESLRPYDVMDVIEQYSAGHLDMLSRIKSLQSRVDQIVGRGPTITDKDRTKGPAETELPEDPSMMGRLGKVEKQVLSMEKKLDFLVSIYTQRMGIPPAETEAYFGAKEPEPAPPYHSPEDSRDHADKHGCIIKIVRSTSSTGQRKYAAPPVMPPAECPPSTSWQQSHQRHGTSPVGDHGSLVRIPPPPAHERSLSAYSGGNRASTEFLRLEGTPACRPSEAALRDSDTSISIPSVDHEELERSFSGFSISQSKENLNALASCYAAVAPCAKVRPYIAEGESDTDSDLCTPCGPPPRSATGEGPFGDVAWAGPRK
Sequence of Genome polyprotein (P29990 2492-3391 limits assumed): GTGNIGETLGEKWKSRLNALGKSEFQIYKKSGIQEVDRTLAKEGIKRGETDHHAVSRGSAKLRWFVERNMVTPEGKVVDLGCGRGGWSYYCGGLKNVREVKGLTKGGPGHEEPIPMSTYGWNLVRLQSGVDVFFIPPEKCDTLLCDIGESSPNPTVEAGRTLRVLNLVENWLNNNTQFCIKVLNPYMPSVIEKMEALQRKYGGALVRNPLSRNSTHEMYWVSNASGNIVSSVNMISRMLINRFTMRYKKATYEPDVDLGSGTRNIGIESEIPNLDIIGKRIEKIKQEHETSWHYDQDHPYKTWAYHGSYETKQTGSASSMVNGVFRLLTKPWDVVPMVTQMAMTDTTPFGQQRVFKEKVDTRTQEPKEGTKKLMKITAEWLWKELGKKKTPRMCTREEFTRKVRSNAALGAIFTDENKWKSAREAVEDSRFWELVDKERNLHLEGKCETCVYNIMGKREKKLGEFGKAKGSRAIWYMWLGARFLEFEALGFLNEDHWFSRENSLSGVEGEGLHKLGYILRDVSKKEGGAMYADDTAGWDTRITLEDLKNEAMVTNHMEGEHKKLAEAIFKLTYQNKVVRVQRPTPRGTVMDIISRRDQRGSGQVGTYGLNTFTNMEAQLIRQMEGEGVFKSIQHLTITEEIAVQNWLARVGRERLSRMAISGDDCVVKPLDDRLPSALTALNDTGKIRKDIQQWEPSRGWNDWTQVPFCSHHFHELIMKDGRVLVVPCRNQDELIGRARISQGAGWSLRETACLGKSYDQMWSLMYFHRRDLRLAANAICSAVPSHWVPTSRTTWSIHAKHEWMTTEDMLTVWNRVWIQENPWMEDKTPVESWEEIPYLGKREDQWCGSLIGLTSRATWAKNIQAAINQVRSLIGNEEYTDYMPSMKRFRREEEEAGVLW

C=C(C)CC1N(c2cccc(OC)c2)C(=O)C2C(C(=O)O)C3C=CC21O3 (stereo not drawn)
IC50 [1]: > 100 µM (inactive) | IC50 [2]: > 100 µM (not active)

CN(C)c1nc(N)nc(CSc2nnnn2-c2ccccc2)n1
EC50 [3]: > 195 µM (not active)

CSc1nnc(-c2ccco2)c(-c2ccco2)n1
IC50 [4]: 13.2 µM (not active) | IC50 [5]: 29.5 µM (active) | IC50 (SUMO-activating enzyme [6]): 15.2 µM (active) | IC50 (SUMO-activating enzyme [7]): 2.91 µM (active) | IC50 (Bcl-2-like protein 1): > 109 µM (not active) | IC50 [8]: 99.7 µM (active) | IC50 [9]: 1.04 µM (active) | IC50 (Estrogen receptor beta): > 50 µM (not active) | IC50 (Bcl-2-like protein 10): 19.4 µM (active) | IC50 [10]: 41.5 µM (active) | IC50 [11]: 99.1 µM (active) | IC50 (Genome polyprotein): 86.8 µM (active) | IC50 [12]: 80.4 µM (active) | IC50 [13]: 8.02 µM (active)

CC(C)(C)c1ccc(OCCC(=O)NCC(c2cccs2)N2CCOCC2)cc1 (stereo not drawn)
EC50 [14]: 1.97 µM (active)

CCc1n[nH]c2c1C(c1cccc(OC(=O)N3CCOCC3)c1)C(C#N)=C(N)O2 (stereo not drawn)
AC50 [15]: 20.3 µM (active) | EC50 (Protein RecA): 9.88 µM (active) | EC50 (Estrogen receptor): 6.39 µM (not active)

Brc1ccc(-c2csc(/N=C/N3CCCC3)n2)cc1
IC50 [16]: > 35 µM (not active) | IC50 [17]: > 35 µM (not active)
